Results from patent US11033539B2, “Compounds of formulas (VII), (VIII), (IX), (XI), (XII), (XIII), and (XIV) as muscarinic receptor 4(M4) antagonists for treating neurological diseases” (Neurocrine Biosciences, Inc., priority 2015, dated 2021).

Columns and labels:
human M3 receptor = human M3 receptor (Homo sapiens (Human), UniProt P20309); assay: Radioligand (tritiated N-methylscopolamine) binding assay, M3; details: CHO cell membranes expressing human M3; 1.5 nM tritiated N-methylscopolamine; 90 min, 37° C.; read-out: Ki against M3 receptor (Table 21, M3)
How it was run: (§1)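 Ki values come from displacement of 1.5 nM radioligand from membranes of receptor-expressing CHO cells, with filter-trapped radioactivity counted after rapid vacuum filtration. Twelve compound concentrations (10 μM to […]) were incubated for 90 min at 37 °C at pH 7.4.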

human M4 receptor = human M4 receptor (Homo sapiens (Human), UniProt P08173); assay: Radioligand (tritiated N-methylscopolamine) binding assay, M4; details: Ki against the M4 receptor; membranes from CHO cells expressing human M4; tritiated N-methylscopolamine 1.5 nM; read-out: Ki
How it was run: as §1

human M1 receptor = human M1 receptor (Homo sapiens (Human), UniProt P11229); assay: Radioligand (tritiated N-methylscopolamine) binding assay, M1; details: CHO cell membranes expressing human M1; 1.5 nM tritiated N-methylscopolamine; 90 min, 37° C.; read-out: Ki against M1 receptor (Table 21, M1)
How it was run: as §1

human M2 receptor = human M2 receptor (Homo sapiens (Human), UniProt P08172); assay: Radioligand (tritiated N-methylscopolamine) binding assay, M2; details: CHO cell membranes expressing human M2; 1.5 nM tritiated N-methylscopolamine; 90 min, 37° C.; read-out: Ki against M2 receptor (Table 21, M2)
How it was run: as §1

human M5 receptor = human M5 receptor (Homo sapiens (Human), UniProt P08912); assay: Radioligand (tritiated N-methylscopolamine) binding assay, M5; details: CHO cell membranes expressing human M5; 1.5 nM tritiated N-methylscopolamine; 90 min, 37° C.; read-out: Ki against M5 receptor (Table 21, M5)
How it was run: as §1

Sequence of human M5 receptor (P08912 whole entry): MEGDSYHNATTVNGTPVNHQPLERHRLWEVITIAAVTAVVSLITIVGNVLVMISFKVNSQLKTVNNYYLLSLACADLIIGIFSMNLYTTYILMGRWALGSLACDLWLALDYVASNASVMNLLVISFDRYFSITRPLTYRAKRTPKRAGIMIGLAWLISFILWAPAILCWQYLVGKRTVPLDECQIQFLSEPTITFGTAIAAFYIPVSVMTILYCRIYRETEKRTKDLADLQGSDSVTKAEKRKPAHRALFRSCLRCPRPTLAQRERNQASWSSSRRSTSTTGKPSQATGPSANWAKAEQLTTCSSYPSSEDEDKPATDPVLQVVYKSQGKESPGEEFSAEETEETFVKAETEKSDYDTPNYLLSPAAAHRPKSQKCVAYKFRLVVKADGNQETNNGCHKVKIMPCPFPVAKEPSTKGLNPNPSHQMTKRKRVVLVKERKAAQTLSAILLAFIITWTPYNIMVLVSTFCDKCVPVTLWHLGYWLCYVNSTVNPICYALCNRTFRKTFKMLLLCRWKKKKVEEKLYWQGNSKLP
Sequence of human M4 receptor (P08173 whole entry): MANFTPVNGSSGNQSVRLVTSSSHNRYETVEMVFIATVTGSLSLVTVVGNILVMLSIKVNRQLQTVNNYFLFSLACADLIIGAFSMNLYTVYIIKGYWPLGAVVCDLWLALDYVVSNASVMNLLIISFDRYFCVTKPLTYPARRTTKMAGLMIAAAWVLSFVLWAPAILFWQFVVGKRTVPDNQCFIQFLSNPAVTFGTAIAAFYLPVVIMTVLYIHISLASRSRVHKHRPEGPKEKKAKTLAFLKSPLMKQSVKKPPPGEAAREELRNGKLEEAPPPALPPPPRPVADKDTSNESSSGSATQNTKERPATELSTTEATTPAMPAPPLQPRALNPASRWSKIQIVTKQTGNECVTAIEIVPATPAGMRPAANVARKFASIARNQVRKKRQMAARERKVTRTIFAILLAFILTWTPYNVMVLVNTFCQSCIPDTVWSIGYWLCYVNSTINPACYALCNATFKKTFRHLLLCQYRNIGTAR
Sequence of human M1 receptor (P11229 whole entry): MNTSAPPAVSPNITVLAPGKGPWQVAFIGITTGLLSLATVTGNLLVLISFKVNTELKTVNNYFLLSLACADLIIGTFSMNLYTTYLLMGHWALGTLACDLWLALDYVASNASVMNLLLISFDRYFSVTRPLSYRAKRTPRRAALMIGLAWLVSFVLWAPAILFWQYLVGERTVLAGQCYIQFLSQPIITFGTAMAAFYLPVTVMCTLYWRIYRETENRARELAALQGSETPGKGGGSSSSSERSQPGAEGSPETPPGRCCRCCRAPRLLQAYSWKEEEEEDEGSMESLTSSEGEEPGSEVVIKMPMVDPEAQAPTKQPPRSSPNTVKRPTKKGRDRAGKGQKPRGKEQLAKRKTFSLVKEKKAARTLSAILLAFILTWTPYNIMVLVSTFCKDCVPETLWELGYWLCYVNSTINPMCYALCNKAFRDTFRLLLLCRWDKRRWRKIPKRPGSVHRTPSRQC
Sequence of human M3 receptor (P20309 whole entry): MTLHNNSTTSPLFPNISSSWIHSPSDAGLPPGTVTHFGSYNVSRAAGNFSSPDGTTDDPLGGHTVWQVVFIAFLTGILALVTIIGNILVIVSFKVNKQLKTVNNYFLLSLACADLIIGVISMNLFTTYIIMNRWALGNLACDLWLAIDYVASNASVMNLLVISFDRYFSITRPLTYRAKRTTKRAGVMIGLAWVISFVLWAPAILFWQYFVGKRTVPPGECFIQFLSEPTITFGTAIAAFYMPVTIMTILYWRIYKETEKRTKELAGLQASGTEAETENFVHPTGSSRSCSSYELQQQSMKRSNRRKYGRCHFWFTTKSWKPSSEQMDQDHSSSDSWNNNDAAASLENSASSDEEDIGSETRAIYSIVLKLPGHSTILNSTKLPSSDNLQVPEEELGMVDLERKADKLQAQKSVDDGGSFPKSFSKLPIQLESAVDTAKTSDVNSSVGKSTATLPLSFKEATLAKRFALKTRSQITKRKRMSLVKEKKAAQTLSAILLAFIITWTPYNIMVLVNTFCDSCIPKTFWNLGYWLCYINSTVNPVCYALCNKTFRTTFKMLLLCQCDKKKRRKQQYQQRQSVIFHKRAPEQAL
Sequence of human M2 receptor (P08172 whole entry): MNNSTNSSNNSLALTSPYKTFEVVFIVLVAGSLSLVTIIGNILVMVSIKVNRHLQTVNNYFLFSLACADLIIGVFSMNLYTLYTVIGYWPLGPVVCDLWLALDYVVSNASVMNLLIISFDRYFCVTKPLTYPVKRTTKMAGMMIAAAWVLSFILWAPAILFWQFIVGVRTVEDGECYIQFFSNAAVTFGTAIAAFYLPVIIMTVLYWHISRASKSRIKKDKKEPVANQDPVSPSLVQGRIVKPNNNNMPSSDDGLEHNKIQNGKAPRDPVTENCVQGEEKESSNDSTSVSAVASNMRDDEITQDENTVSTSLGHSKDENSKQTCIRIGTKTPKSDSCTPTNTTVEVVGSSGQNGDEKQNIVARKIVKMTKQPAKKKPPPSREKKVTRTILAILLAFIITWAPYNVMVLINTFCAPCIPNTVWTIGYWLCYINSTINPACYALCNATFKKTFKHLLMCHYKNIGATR

Row | SMILES | Ki (human M3 receptor) | Ki (human M4 receptor) | Ki (human M1 receptor) | Ki (human M2 receptor) | Ki (human M5 receptor)
1 | C[C@@H]1CN(c2ccc(C(F)(F)F)cc2)CCN1C(=O)NCCC1CCN(Cc2ccccc2)CC1 [4-5, (2R)-N-[2-(1-benzylpiperidin-4-yl)ethyl]-2-methyl-4-[4-(trifluoromethyl)phenyl]piperazine-1-carboxamide] | > 1000 nM | < 10 nM | 100 to 1000 nM | 10 to 100 nM | > 1000 nM
2 | C[C@@H]1CN(c2ccc(OC(F)(F)F)cc2F)CCN1C(=O)NCCC1CCN(Cc2ccccc2)CC1 [10-12, (2R)-N-[2-(1-benzylpiperidin-4-yl)ethyl]-4-[2-fluoro-4-(trifluoromethoxy)phenyl]-2-methylpiperazine-1-carboxamide] | 100 to 1000 nM | < 10 nM | 100 to 1000 nM | 10 to 100 nM | 100 to 1000 nM
3 | O=C(NCC(O)C1CCN(Cc2ccccc2)CC1)C1CCN(c2ccc(OC(F)(F)F)cc2)CC1 (stereo not drawn) [9-8, N-[2-(1-benzylpiperidin-4-yl)-2-hydroxyethyl]-1-[4-(trifluoromethoxy)phenyl]piperidine-4-carboxamide] | > 1000 nM | < 10 nM | > 1000 nM | 100 to 1000 nM | > 1000 nM
4 | Cc1c(C(=O)NCCC2CCN(Cc3ccccc3)CC2)cnc2cc(-c3cc(F)c(F)c(F)c3)nn12 [18-17] | > 1000 nM | < 10 nM | > 1000 nM | 100 to 1000 nM | > 1000 nM
5 | C[C@@H]1CN(c2cnc(C(F)(F)F)cn2)C[C@@H](C)N1C(=O)NCCC1CCN(Cc2ccccc2)CC1 [26-4, (2R,6R)-N-[2-(1-benzylpiperidin-4-yl)ethyl]-2,6-dimethyl-4-[5-(trifluoromethyl)pyrazin-2-yl]piperazine-1-carboxamide] | > 1000 nM | < 10 nM | > 1000 nM | 100 to 1000 nM | > 1000 nM
6 | CC1CN(c2cccc(OC(F)(F)F)c2)CCC1C(=O)NCCC1CCN(Cc2ccccc2)CC1 (stereo not drawn) [10-18, N-[2-(1-benzylpiperidin-4-yl)ethyl]-3-methyl-1-[3-(trifluoromethoxy)phenyl]piperidine-4-carboxamide] | > 1000 nM | < 10 nM | > 1000 nM | 100 to 1000 nM | > 1000 nM
7 | C[C@@H]1CN(c2cnc(C(F)(F)F)nc2)CCN1C(=O)NCCC1CCN(Cc2ccccc2)CC1 [4-79, (2R)-N-[2-(1-benzylpiperidin-4-yl)ethyl]-2-methyl-4-[2-(trifluoromethyl)pyrimidin-5-yl]piperazine-1-carboxamide] | > 1000 nM | < 10 nM | 100 to 1000 nM | 10 to 100 nM | > 1000 nM
8 | C[C@@H]1CN(c2cc(C(F)(F)F)ccn2)CCN1C(=O)NCCC1CCN(Cc2ccccc2)CC1 [4-12, (2R)-N-[2-(1-benzylpiperidin-4-yl)ethyl]-2-methyl-4-[4-(trifluoromethyl)pyridin-2-yl]piperazine-1-carboxamide] | 100 to 1000 nM | < 10 nM | 100 to 1000 nM | 10 to 100 nM | > 1000 nM
9 | C[C@@H]1CN(c2cnc(C(F)(F)F)nc2)C[C@H](C)N1C(=O)NCCC1CCN(Cc2ccc3[nH]ccc3c2)CC1 [6-50, (2R,6S)-N-{2-[1-(1H-indol-5-ylmethyl)piperidin-4-yl]ethyl}-2,6-dimethyl-4-[2-(trifluoromethyl)pyrimidin-5-yl]piperazine-1-carboxamide] | 100 to 1000 nM | < 10 nM | 100 to 1000 nM | 10 to 100 nM | > 1000 nM
10 | C[C@H]1CN(c2ccc(OC(F)(F)F)c(F)c2)CCN1C(=O)NCCC1CCN(Cc2ccccc2)CC1 [4-53, (2S)-N-[2-(1-benzylpiperidin-4-yl)ethyl]-4-[3-fluoro-4-(trifluoromethoxy)phenyl]-2-methylpiperazine-1-carboxamide] | 100 to 1000 nM | < 10 nM | 100 to 1000 nM | 10 to 100 nM | 100 to 1000 nM
11 | C[C@@H]1CN(c2ccc(C(F)(F)F)cc2F)CCN1C(=O)NCCC1CCN(Cc2ccccc2)CC1 [4-73, (2R)-N-[2-(1-benzylpiperidin-4-yl)ethyl]-4-[2-fluoro-4-(trifluoromethyl)phenyl]-2-methylpiperazine-1-carboxamide] | 100 to 1000 nM | < 10 nM | 100 to 1000 nM | 10 to 100 nM | > 1000 nM
12 | C[C@@H]1CN(c2ncc(C(F)(F)F)cn2)CCN1C(=O)NCCC1CCN(Cc2cccc(F)c2)CC1 [6-36, (2R)-N-(2-{1-[(3-fluorophenyl)methyl]piperidin-4-yl}ethyl)-2-methyl-4-[5-(trifluoromethyl)pyrimidin-2-yl]piperazine-1-carboxamide] | > 1000 nM | < 10 nM | 100 to 1000 nM | 100 to 1000 nM | > 1000 nM
13 | C[C@@H]1CN(c2ccc(C#N)c(OC(F)(F)F)c2)CCN1C(=O)NCCC1CCN(Cc2ccccc2)CC1 [22-17] | > 1000 nM | < 10 nM | 100 to 1000 nM | 10 to 100 nM | 100 to 1000 nM
14 | C[C@@H]1CN(c2ccc(F)c(C#N)c2)CCN1C(=O)NC[C@H](O)C1CCN(Cc2ccccc2)CC1 [7-12, (2R)-N-[(2R)-2-(1-benzylpiperidin-4-yl)-2-hydroxyethyl]-4-(3-cyano-4-fluorophenyl)-2-methylpiperazine-1-carboxamide] | > 1000 nM | < 10 nM | > 1000 nM | > 1000 nM | > 1000 nM
15 | O=C(NCCC1CCN(Cc2ccccc2)CC1)N1CCN(c2ccc(C(F)(F)F)cn2)CC1 [4-77, N-[2-(1-benzylpiperidin-4-yl)ethyl]-4-[5-(trifluoromethyl)pyridin-2-yl]piperazine-1-carboxamide] | > 1000 nM | < 10 nM | 100 to 1000 nM | 10 to 100 nM | > 1000 nM
16 | C[C@@H]1CN(c2nc(Cl)cc(C#N)n2)CCN1C(=O)NCCC1CCN(Cc2ccccc2)CC1 [5-5, (2R)-N-[2-(1-benzylpiperidin-4-yl)ethyl]-4-(4-chloro-6-cyanopyrimidin-2-yl)-2-methylpiperazine-1-carboxamide] | > 1000 nM | < 10 nM | 100 to 1000 nM | 100 to 1000 nM | > 1000 nM
17 | C[C@@H]1CN(c2ccc(C#N)cc2F)C[C@H](C)N1C(=O)NCCC1CCN(Cc2ccccc2)CC1 [22-3] | > 1000 nM | < 10 nM | > 1000 nM | 100 to 1000 nM | > 1000 nM
18 | C[C@@H]1CN(c2cc(F)c(F)c(F)c2)CCN1C(=O)NCCC1CCN(Cc2cccc3c2OCC3)CC1 [6-3, (2R)-N-{2-[1-(2,3-dihydro-1-benzofuran-7-ylmethyl)piperidin-4-yl]ethyl}-2-methyl-4-(3,4,5-trifluorophenyl)piperazine-1-carboxamide] | 100 to 1000 nM | < 10 nM | 100 to 1000 nM | 10 to 100 nM | > 1000 nM
19 | C[C@@H]1CN(C(=O)NCCC2CCN(Cc3ccccc3)CC2)CCN1c1cc(F)c(F)c(F)c1 [4-17, (3R)-N-[2-(1-benzylpiperidin-4-yl)ethyl]-3-methyl-4-(3,4,5-trifluorophenyl)piperazine-1-carboxamide] | > 1000 nM | < 10 nM | > 1000 nM | 100 to 1000 nM | > 1000 nM
20 | C[C@@H]1CN(c2ncc(C#N)cn2)C[C@H](C)N1C(=O)NCCC1CCN(CC[Si](C)(C)C)CC1 [21-7] | 10 to 100 nM | < 10 nM | 10 to 100 nM | < 10 nM | 100 to 1000 nM
21 | C[C@@H]1CN(c2ncc(C(F)(F)F)c(N)n2)C[C@@H](C)N1C(=O)NCCC1CCN(Cc2ccccc2)CC1 [26-1, (2R,6R)-4-[4-amino-5-(trifluoromethyl)pyrimidin-2-yl]-N-[2-(1-benzylpiperidin-4-yl)ethyl]-2,6-dimethylpiperazine-1-carboxamide] | > 1000 nM | < 10 nM | 100 to 1000 nM | 10 to 100 nM | > 1000 nM
22 | C[C@H]1CN(c2ccc(C(F)(F)F)cn2)CCC1C(=O)NCCC1CCN(Cc2ccccc2)CC1 (stereo partly drawn) [10-80, (3R)-N-[2-(1-benzylpiperidin-4-yl)ethyl]-3-methyl-1-[5-(trifluoromethyl)pyridin-2-yl]piperidine-4-carboxamide] | 100 to 1000 nM | < 10 nM | 10 to 100 nM | 10 to 100 nM | 100 to 1000 nM
23 | C[C@@H]1CN(c2ncc(C(F)(F)F)cn2)CCN1C(=O)NCCC1CCN(Cc2ccc(F)cc2)CC1 [6-37, (2R)-N-(2-{1-[(4-fluorophenyl)methyl]piperidin-4-yl}ethyl)-2-methyl-4-[5-(trifluoromethyl)pyrimidin-2-yl]piperazine-1-carboxamide] | > 1000 nM | < 10 nM | 100 to 1000 nM | 10 to 100 nM | > 1000 nM
24 | N#Cc1cnc(N2CC3CCC(C2)N3C(=O)NCCC2CCN(Cc3ccccc3)CC2)nc1 [8-48, N-[2-(1-benzylpiperidin-4-yl)ethyl]-3-(5-cyanopyrimidin-2-yl)-3,8-diazabicyclo[3.2.1]octane-8-carboxamide] | 100 to 1000 nM | < 10 nM | 10 to 100 nM | < 10 nM | 100 to 1000 nM
